Reference: US20040146987A1, “Rapidly degraded reporter fusion proteins” (Promega Corporation, priority 2002, published 2004)
Like-named read-outs stand apart in the source and are kept apart here.

Columns and labels:
protein synthesis = experiment: inhibition of protein synthesis by cycloheximide; format: cell-based; conditions: 100 μg/ml
Description: The half-life of the protein encoded by plasmid pUbiq(Y)Luc 19 was determined in mammalian cells and compared to the half-lives of wild-type luciferase as well as fusion proteins comprising firefly luciferase and a mutant form of the C-ODC (Luc-PEST10). This was done by evaluating the luminescence emitted by cells that were transiently transfected with either plasmid pUbiq(Y)Luc19 or pwtLuc1 or pLuc-PEST 10, respectively, and then, for different periods of time, were exposed to the protein synthesis inhibitor cycloheximide. […] The estimated half-life of Ubiq(Y)Luc in these cells is about 170-200 minutes, which is far longer than the half-lives reported by Varshavsky (1992) for P-galactosidase containing a tyrosine residue at the N-terminus both in E. coli and S. cerevisiae (2 and 10 minutes, respectively).

COS-7 cells = experiment: cycloheximide treatment of transiently transfected COS-7 cells, luminescence of accumulated luciferase; format: cell-based, African green monkey; conditions: cycloheximide 100 μg/ml
Description: For transfection, cells were grown to confluence in T25 flasks (Falkon, Becton Dickinson, Oxford). Transfection was conducted in 1 ml of serum-free RPMI-1640 that was mixed with 8 μg of plasmid DNA and 20 μl of Lipofectamine™2000 (GIBCO BRL). CHO cells were incubated in the transfection media for 30 minutes, HeLa cells for 1 hour, and COS-7 cells for 5 hours. Following incubation, cells were trypsinized with Trypsin-EDTA (GIBCO BRL) and collected by centrifugation. […]
To determine firefly luciferase activity, cells were lysed by freeze/thawing. Lysate from each well (100 μl) was transferred into corresponding wells of opaque 96 well plates (Falkon, Becton Dickinson, Oxford) containing 100 μl of Bright-Glo™ Luciferase Assay System (Promega) and luminescence intensity was determined using MLX Microtiter Plate Luminometer (Dynex). The activity of Renilla luciferase was measured by mixing 40 μl samples with 100 μl of assay reagent from the Renilla Luciferase Assay System (Promega).
The half-life of the protein encoded by plasmid pUbiq(Y)Luc 19 was determined in mammalian cells and compared to the half-lives of wild-type luciferase as well as fusion proteins comprising firefly luciferase and a mutant form of the C-ODC (Luc-PEST10). […]

[1] = literature; cited from earlier work
S. cerevisiae = conditions: yeast / S. cerevisiae, cited from earlier work
E. coli = conditions: cited from earlier work

C[C@@H]1C[C@@H]([C@H](O)CC2CC(=O)NC(=O)C2)C(=O)[C@@H](C)C1 [cycloheximide]
time to complete inhibition of protein synthesis (protein synthesis): ≤ 7.5 min

wild-type luciferase: wild-type firefly luciferase encoded by plasmid pwtLuc1
half-life (COS-7 cells): about 7 hours
half-life [1]: about 3.68 hours

β-galactosidase
half-life (S. cerevisiae): 20 h
half-life (S. cerevisiae; listed as wild-type P-galactosidase): > 20 h
half-life (E. coli): more than 10 hours
